Results taken from US9688624B2, “DP2 antagonist and uses thereof” (Brickell Biotech, Inc., priority 2010, dated 2017).
Structures can show the parent of a compound that is named as a salt. Where two headings read alike, the source gives them in different places.

Legend:
DP2 receptor = DP2 receptor (Homo sapiens (Human), UniProt Q9Y5Y4); assay: In vitro DP2/CRTH2 radioligand ([3H]PGD2) membrane binding assay
Protocol: Example 15: In Vitro DP2/CRTH2 Binding Assay
The ability of Compound 1 to bind to the human DP2 receptor was assessed via a radioligand binding assay using [^3H]PGD2. HEK293 cells stably expressing recombinant human DP2 are resuspended in 10 mM Hepes, 7.4 containing 1 mM DTT, lysed and centrifuged at 75,000×g to pellet the membranes. The membranes are resuspended in 10 mM Hepes, 7.4 containing 1 mM DTT and 10% glycerol to approximately 5 mg protein/ml. […] The reactions are terminated by rapid filtration through Whatman GF/C glass fibre filter plates. The filter plates were pre-soaked in 0.33% polythylenimine for 30 minutes at room temperature then washed in Wash Buffer (50 mM Hepes, 0.5 M NaCl pH 7.4) prior to harvesting. After harvesting, the filter plates are washed 3 times with 1 ml cold Wash Buffer then dried. Scintillant is then added to the plates and the radioactivity retained on the filters is determined on a Packard TopCount (Perkin Elmer). Specific binding is determined as total radioactive binding minus non-specific binding in the presence of 10 μM PGD2. IC50s were determined using GraphPad prism analysis of drug titration curves. Mouse, rat and guinea pig DP2 receptors were also investigated.
The binding potency of Compound 1 is only slightly shifted in the presence of species-specific serum albumin.

[1] = target: recombinant human CRTH2 receptor (Homo sapiens (Human), UniProt Q9Y5Y4); assay: In vitro membrane GTPγS binding assay; format: biochemical; details: average; 80 nM PGD2, 0.2% human serum albumin
Chain of recombinant human CRTH2 receptor (Q9Y5Y4 whole entry): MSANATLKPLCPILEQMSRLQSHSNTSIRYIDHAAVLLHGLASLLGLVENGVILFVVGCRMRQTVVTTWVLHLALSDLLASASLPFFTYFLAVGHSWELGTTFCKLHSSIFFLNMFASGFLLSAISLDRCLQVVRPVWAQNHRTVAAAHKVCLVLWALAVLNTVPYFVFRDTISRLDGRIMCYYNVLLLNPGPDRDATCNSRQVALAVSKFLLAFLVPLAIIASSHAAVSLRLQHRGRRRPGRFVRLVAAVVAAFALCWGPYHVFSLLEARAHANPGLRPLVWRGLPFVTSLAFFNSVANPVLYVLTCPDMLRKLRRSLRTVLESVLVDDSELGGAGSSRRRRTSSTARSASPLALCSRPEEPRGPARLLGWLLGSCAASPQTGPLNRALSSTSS
Protocol: Example 16: In Vitro GTPγS Binding Assay
The ability of Compound 1 to inhibit binding of GTP to DP2 is assessed via a membrane GTPγS assay. CHO cells stably expressing the recombinant human CRTH2 receptor are resuspended in 10 mM Hepes, 7.4 containing 1 mM DTT, lysed and centrifuged at 75,000×g to pellet the membranes. The membranes are resuspended in 10 mM Hepes, 7.4 containing 1 mM DTT and 10% glycerol. Membranes (˜12.5 μg per well) are incubated in 96-well plates with 0.05 nM [^35S]-GTPγS, 80 nM PGD2, 5 μM GDP, and Compound 1 in Assay Buffer (50 mM Hepes, pH 7.4, 100 mM NaCl, 5 mM MgCl2 and 0.2% human serum albumin) for 60 minutes at 30° C. The reactions are terminated by rapid filtration through Whatman GF/B glass fibre filter plates. The filter plates are washed 3 times with 1 ml cold Assay Buffer and dried. Scintillant is then added to the plates and the radioactivity retained on the filters is determined on a Packard TopCount (Perkin Elmer). Specific binding is determined as total radioactive binding minus non-specific binding in the […] of the ligand (80 nM PGD2). IC50s were determined using Graphpad prism analysis of drug titration curves.

CYP2D6 = CYP2D6 (Homo sapiens (Human), UniProt P10635); assay: Extracellular cytochrome P450 inhibition (microsomes); format: in vitro ADME; details: 2D6, dextromethorphan O-demethylation
Chain of CYP2D6 (P10635 whole entry): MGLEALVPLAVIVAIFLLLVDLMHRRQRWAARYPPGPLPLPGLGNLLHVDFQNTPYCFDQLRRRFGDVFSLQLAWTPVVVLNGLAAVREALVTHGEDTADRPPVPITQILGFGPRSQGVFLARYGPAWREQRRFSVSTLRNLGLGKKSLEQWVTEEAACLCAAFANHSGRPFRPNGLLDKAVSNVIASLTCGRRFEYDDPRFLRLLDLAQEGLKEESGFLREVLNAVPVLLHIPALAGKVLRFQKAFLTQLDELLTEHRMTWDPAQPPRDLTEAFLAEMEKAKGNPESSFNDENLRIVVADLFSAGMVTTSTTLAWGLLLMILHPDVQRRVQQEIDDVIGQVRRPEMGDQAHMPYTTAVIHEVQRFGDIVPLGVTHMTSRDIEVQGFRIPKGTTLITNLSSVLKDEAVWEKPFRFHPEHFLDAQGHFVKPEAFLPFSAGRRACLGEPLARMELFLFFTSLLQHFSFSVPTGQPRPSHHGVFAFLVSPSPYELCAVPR

[2] = tested on: allergen-induced asthma (OVA challenge); assay: Guinea pig allergic asthma (OVA) model; format: in vivo
Protocol: Example 20: Guinea Pig Allergic Asthma Model
Compound 2 was evaluated in a guinea pig OVA model in order to determine efficacy in a setting of allergen-induced asthma. As an early indication of a pharmacodynamic response animals were challenged with DK-PGD2 2 hours post OVA challenge (2.5 hours post Compound 2 administration) and blood was collected 30 minutes later to assess leukocytes counts. […] OVA challenge caused a significant influx of cells in bronchoalveolar lavage fluid at 23.5 hr post-dose; there was no difference between animals that received OVA only versus those that received OVA plus DK-PGD2. The majority of cells were eosinophils and macrophages with a small, but significant proportion of neutrophils.

[3] = tested on: smoke-induced pulmonary inflammation; assay: Mouse smoke model of chronic obstructive pulmonary disease; format: in vivo; details: 10 and 50 mg/kg PO daily
Protocol: Example 21: Mouse Smoke Model of Chronic Obstructive Pulmonary Disease
A mouse model of acute cigarette smoke exposure was used to determine the effects of Compound 1 on smoke-induced pulmonary inflammation.
BALB/c mice were exposed to the smoke of 7 unfiltered cigarettes per day via whole-body exposure on days 0, 1, and 2 for a total of 1.75 hours per day. […] The plasma concentrations for Compound 1 measured at trough were 85 and 588 nM at 10 mg/kg and 50 mg/kg, respectively.

[4] = Phase I single ascending dose study, safety and tolerability; format: in vivo, human; details: humans, capsule, 5 to 500 mg single doses
Excerpt: To assess: (1) the safety and tolerability of single and multiple doses of Compound 2 following oral administration; and (2) the pharmacokinetics (PK) of Compound 2 after single and multiple doses; and (3) the effects of the pharmacodynamic (PD) responses in healthy subjects to Compound 2 as measured by a PGD2-induced eosinophil shape change assay (ESC).
The Single Ascending Dose (SAD) study will include 6 cohorts with 8 subjects each, 6 receiving the active treatment and 2 receiving the placebo. The SAD study will explore doses of 5, 15, 50, 150, 300 and 500 mg/day. Compound 2 (Pattern 1) is administered as API in a Capsule, prepared on site at the clinical pharmacy (see Example 10). Safety monitoring will include: a “how do you feel” (HDYF) question, adverse events reporting, physical examinations, vital signs, ECG's, and a biological assessment (clinical chemistry, hematology and urinalysis). The decision to escalate to the next dose level will be based on the results of medical monitoring, and a blinded interim analysis of pharmacokinetic parameters (AUC, Cmax) and pharmacodynamic responses. Doses may be adjusted based on the occurrence of adverse events. Subjects will be followed on site for 72 hours after dose administration.

CYP1A2 = CYP1A2 (Homo sapiens (Human), UniProt P05177); details: microsomes, pH 7.4
Chain of CYP1A2 (P05177 whole entry): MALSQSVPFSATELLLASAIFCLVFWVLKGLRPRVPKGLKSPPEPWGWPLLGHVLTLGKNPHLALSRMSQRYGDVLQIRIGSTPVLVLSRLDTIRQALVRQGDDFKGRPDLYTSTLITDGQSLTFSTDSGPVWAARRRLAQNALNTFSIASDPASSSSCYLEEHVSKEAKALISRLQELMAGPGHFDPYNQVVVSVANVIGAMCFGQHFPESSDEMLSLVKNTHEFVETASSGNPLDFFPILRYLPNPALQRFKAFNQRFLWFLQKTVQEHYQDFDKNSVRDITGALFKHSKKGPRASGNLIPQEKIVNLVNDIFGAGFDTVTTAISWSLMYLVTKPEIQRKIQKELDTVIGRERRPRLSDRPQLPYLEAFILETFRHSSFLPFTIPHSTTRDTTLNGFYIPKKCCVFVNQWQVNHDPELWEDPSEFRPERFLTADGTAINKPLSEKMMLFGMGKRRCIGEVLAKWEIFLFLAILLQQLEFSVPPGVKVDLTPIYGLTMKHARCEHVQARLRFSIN

Chain of DP2 receptor (Q9Y5Y4 whole entry): as the sequence (Q9Y5Y4 whole entry) above

SMILES	IC50 (DP2 receptor; average, 0.2% species-specific albumin, read-out: IC50, radioligand membrane binding on human DP2)	IC50 (DP2 receptor; average, without serum albumin, read-out: IC50, inhibition of radiolabeled PGD2 binding to human DP2)	IC50 (DP2 receptor; in the presence of 0.5% serum albumin, read-out: IC50, binding to DP2)	IC50 [1]	IC50 (CYP2D6)	eosinophils and neutrophils in bronchoalveolar lavage fluid ([2]; 100 mg/kg PO)	total cellular influx in bronchoalveolar lavage fluid ([2]; 30, 60, and 100 mg/kg PO, significant at 60 and 100 mg/kg, 23.5 hr post-dose)	DK-PGD2-induced increase in blood leukocytes ([2]; 30, 60, and 100 mg/kg, 2.5 hours post administration)	BALF lymphocytes [3]	decrease of BALF neutrophils compared to the untreated group [3]	tolerability [4]	IC50 (CYP1A2)
COc1ccc(CC(=O)O)cc1Oc1ccc(NC(=O)C(C)(C)C)cc1CSC(C)(C)C [Compound 1, 2-(3-(2-((tert-butylthio)methyl)-4-(2,2-dimethyl-propionylamino)phenoxy)-4-methoxyphenyl)acetic acid]	19.7 nM	5.2 nM	19.7 nM	2.8 nM	–	–	–	–	–	–	–	–
COc1ccc(CC(=O)O)cc1Oc1ccc(NC(=O)C(C)(C)C)cc1CSC(C)(C)C [Compound 2, 2-(3-(2-((tert-butylthio)methyl)-4-(2,2-dimethyl-propionylamino)phenoxy)-4-methoxyphenyl)acetic acid, sodium salt]	–	–	–	–	> 50000 nM	significantly reduced	dose dependently inhibited	blocked	trend toward reducing	approx. 50%	well tolerated	> 50000 nM
